# Test results reported in patent EP4467141A1, “PYRAZOLO-QUINOLINES AS SELECTIVE INHIBITORS OF GENOTOXIC STRESS-INDUCED IKK/NF- KB PATHWAYS FOR CANCER THERAPY” (Max-Delbrück-Centrum für Molekulare Medizin in der …, priority 2023, dated 2024).
# Where two headings read alike, the source gives them in different places.
# How the values were obtained:
# Experiment in all cases: Kinase panel study
# Type in all cases: biochemical
# AKT3 (PKB gamma) = molecular target: T1, AKT3 (PKB gamma) (Homo sapiens, UniProt Q9Y243)
# T1 construct: purchased Thermo Fisher Scientific
# Method: (§1) The Kinase panel study was entirely provided by Thermo Fisher Scientific using the two lead compounds MW01 and MW05 as well as their derivatives (MW01-E06, MW01-E10, MW01-E14, MW01-E18, MW05-E2, MW05-E3, MW05-E9 and MW05-E10. The experiment was performed using the ZLyte or Adapta protocol according to manufacturer standard operating procedures.
# (§2) Based on their similar effects in our screen and molecular analysis, MW01 and MW05 were used in comparative target deconvolution studies seeking common targets despite their distinct structures. To eliminate previously identified kinases regulating NF-κB activity, such as IKK, as possible targets of MW01 and MW05, an in vitro kinase inhibition assay was performed. […] We next investigated if any of the shared kinase targets of MW01 and MW05 play a role in genotoxic stress-induced NF-κB activity and established several criteria to narrow down pathway-relevant targets. Considering the similar NF-κB inhibition phenotypes of both compounds, we hypothesized first that the target should be shared by both lead compounds. Second, based on the CaCo2 recovery values and experimental treatment concentration of 10 µM), the putative target kinase should have a low IC50 of, at most, 2000 nM for both lead compounds in the in vitro kinase panel (Fig. 2A). Based on these criteria alone, we arrived at a relatively short list of potential targets for further analysis, leaving only PIK3CG, PIK3C2G, and CLK2 (Fig. 2B). IC50 values for PIK3C2G by both lead compounds agreed best with these criteria, but RNA expression analysis indicates high tissue specificity as well as lack of expression of this kinase in our U2-OS model cell line, which we then eliminated from further analysis (Uhlén et al., 2015). […] Table 6: Percentage of inhibition of the indicated kinases by MW01 or MW05 at either 10 µM or 1 µM. n.d. = not determined.
# CSF1R (FMS) = molecular target: T2, CSF1R (FMS) (Homo sapiens, UniProt P07333)
# T2 construct: purchased Thermo Fisher Scientific
# Method: as §1, §2
# DNA-PK = molecular target: T3, DNA-PK (Homo sapiens, UniProt P78527)
# T3 construct: purchased Thermo Fisher Scientific
# Method: as §1, §2
# DYRK1B = molecular target: T4, DYRK1B (Homo sapiens, UniProt Q9Y463)
# T4 construct: purchased Thermo Fisher Scientific
# Method: as §1, §2
# EGFR (ErbB1) = molecular target: T5, EGFR (ErbB1) (Homo sapiens, UniProt P00533)
# T5 construct: purchased Thermo Fisher Scientific
# Method: as §1, §2
# FRAP1 (mTOR) = molecular target: T6, FRAP1 (mTOR) (Homo sapiens, UniProt P42345)
# T6 construct: purchased Thermo Fisher Scientific
# Method: as §1, §2
# IRAK4 = molecular target: T7, IRAK4 (Homo sapiens, UniProt Q9NWZ3)
# T7 construct: purchased Thermo Fisher Scientific
# T7 sequence (Q9NWZ3 1-460): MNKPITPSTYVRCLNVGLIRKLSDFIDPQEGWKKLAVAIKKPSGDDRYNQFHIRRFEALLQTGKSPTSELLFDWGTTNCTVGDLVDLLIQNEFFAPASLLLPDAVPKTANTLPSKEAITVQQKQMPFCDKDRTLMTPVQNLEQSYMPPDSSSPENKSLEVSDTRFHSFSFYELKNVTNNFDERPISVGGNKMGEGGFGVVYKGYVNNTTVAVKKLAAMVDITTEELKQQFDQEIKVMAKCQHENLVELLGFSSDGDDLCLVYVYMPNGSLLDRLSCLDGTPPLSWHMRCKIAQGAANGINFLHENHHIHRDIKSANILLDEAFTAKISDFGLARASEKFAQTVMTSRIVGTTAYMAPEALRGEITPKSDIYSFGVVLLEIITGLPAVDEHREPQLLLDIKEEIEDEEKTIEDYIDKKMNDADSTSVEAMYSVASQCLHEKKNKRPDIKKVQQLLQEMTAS
# Method: as §1, §2
# LRRK2 = molecular target: T8, LRRK2 (Homo sapiens, UniProt Q5S007)
# T8 construct: purchased Thermo Fisher Scientific
# Method: as §1, §2
# PI4KB (PI4K beta) = molecular target: T9, PI4KB (PI4K beta) (Homo sapiens, UniProt Q9UBF8)
# T9 construct: purchased Thermo Fisher Scientific
# Method: as §1, §2
# [1] = molecular target: T10, PIK3CA/PIK3R3 (p11 0 alpha/p55 gamma) (Homo sapiens, UniProt P42336)
# T10 construct: purchased Thermo Fisher Scientific
# Method: as §1, §2
# [2] = molecular target: T11, PIK3CB/PIK3R1 (p110 beta/p85 alpha) (Homo sapiens, UniProt P42338)
# T11 construct: purchased Thermo Fisher Scientific
# Method: as §1, §2
# PIP5K1A = molecular target: T12, PIP5K1A (Homo sapiens, UniProt Q99755)
# T12 construct: purchased Thermo Fisher Scientific
# Method: as §1, §2
# PRKCN (PKD3) = molecular target: T13, PRKCN (PKD3) (Homo sapiens, UniProt O94806)
# T13 construct: purchased Thermo Fisher Scientific
# T13 sequence (O94806 1-890): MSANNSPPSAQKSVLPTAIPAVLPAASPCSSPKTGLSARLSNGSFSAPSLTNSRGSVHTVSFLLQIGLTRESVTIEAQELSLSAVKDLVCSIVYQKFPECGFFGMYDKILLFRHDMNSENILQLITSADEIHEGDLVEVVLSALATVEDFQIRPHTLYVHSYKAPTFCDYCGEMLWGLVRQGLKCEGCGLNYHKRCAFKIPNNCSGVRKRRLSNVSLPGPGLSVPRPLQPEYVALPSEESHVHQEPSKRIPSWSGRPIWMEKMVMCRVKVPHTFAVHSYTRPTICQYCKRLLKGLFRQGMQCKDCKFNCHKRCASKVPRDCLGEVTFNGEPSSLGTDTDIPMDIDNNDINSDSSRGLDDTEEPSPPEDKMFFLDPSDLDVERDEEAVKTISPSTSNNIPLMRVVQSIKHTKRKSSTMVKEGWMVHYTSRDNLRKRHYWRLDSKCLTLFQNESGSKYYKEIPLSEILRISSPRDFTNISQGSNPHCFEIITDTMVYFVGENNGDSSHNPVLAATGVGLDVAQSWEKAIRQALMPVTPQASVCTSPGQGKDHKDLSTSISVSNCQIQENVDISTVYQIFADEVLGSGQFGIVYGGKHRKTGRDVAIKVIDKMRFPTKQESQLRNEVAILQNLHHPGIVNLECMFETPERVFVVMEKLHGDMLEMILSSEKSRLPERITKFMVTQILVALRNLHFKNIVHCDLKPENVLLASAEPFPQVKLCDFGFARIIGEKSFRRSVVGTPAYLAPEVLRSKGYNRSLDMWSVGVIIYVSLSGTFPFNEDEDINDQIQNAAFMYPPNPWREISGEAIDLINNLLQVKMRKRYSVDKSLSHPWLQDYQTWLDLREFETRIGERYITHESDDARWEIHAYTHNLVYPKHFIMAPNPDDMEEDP
# Method: as §1, §2
# [3] = AKT3 (PKB gamma), compound at 10µM, read-out: % of Inhibition
# [4] = CSF1R (FMS), compound at 10µM, read-out: % of Inhibition
# [5] = DNA-PK, compound at 10µM, read-out: % of Inhibition
# [6] = DYRK1B, compound at 10µM, read-out: % of Inhibition
# [7] = EGFR (ErbB1), compound at 10µM, read-out: % of Inhibition
# [8] = FRAP1 (mTOR), compound at 10µM, read-out: % of Inhibition
# [9] = IRAK4, compound at 10µM, read-out: % of Inhibition
# [10] = LRRK2, compound at 10µM, read-out: % of Inhibition
# [11] = PI4KB (PI4K beta), compound at 10µM, read-out: % of Inhibition
# [12] = PIK3CA/PIK3R3, compound at 10µM, read-out: % of Inhibition
# [13] = PIK3CB/PIK3R1, compound at 10µM, read-out: % of Inhibition
# [14] = PIP5K1A, compound at 10µM, read-out: % of Inhibition
# [15] = PRKCN (PKD3), compound at 10µM, read-out: % of Inhibition
# [16] = 1000nM, read-out: Percentage of inhibition
# [17] = 10000nM, read-out: Percentage of inhibition
# T5 sequence (P00533 25-1210): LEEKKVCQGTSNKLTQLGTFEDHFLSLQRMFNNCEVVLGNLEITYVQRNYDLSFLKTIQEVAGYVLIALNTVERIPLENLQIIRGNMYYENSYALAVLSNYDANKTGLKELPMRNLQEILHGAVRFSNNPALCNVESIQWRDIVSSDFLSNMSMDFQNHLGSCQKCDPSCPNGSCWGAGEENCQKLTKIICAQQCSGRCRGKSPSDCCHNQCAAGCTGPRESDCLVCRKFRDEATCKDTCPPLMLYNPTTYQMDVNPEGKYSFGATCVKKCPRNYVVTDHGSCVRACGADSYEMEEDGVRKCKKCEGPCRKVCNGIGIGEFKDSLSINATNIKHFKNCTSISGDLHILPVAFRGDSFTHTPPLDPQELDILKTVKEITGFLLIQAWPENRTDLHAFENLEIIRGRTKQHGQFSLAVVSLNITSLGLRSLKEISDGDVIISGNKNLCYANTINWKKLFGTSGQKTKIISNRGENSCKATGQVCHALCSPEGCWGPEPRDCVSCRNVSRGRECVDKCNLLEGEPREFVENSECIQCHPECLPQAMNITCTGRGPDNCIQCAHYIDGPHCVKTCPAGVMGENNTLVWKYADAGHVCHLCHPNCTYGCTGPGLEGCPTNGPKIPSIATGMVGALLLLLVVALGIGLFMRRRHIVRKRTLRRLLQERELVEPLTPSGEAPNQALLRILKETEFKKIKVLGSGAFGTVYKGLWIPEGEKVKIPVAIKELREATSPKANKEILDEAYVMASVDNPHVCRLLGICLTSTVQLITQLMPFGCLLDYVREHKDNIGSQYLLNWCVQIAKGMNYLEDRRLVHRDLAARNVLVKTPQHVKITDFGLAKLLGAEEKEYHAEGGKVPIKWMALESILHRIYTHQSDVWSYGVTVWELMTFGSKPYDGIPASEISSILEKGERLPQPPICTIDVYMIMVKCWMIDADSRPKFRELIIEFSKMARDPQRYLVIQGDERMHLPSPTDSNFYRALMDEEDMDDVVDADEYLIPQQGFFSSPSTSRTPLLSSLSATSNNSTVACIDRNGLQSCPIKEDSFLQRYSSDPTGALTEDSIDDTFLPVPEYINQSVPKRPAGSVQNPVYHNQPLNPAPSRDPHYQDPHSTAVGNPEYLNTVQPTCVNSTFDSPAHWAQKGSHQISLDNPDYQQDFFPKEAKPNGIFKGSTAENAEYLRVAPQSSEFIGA
# T4 sequence (Q9Y463 whole entry): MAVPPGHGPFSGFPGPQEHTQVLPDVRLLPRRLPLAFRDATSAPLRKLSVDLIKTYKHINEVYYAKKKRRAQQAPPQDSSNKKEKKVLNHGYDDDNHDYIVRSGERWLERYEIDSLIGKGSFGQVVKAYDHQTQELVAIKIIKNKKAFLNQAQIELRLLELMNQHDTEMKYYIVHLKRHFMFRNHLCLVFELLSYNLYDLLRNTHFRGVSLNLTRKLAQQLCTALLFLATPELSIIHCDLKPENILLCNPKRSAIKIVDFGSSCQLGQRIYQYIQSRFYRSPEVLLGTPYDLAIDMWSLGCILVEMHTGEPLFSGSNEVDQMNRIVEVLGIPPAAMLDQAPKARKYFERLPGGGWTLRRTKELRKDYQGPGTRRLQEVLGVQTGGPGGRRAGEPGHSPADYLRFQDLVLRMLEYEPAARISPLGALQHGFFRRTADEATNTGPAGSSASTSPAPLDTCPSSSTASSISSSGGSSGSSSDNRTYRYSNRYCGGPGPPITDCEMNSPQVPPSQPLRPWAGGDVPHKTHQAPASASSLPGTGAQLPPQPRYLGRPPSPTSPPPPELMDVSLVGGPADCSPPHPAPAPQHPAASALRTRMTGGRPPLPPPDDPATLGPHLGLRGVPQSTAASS
# T9 sequence (Q9UBF8 whole entry): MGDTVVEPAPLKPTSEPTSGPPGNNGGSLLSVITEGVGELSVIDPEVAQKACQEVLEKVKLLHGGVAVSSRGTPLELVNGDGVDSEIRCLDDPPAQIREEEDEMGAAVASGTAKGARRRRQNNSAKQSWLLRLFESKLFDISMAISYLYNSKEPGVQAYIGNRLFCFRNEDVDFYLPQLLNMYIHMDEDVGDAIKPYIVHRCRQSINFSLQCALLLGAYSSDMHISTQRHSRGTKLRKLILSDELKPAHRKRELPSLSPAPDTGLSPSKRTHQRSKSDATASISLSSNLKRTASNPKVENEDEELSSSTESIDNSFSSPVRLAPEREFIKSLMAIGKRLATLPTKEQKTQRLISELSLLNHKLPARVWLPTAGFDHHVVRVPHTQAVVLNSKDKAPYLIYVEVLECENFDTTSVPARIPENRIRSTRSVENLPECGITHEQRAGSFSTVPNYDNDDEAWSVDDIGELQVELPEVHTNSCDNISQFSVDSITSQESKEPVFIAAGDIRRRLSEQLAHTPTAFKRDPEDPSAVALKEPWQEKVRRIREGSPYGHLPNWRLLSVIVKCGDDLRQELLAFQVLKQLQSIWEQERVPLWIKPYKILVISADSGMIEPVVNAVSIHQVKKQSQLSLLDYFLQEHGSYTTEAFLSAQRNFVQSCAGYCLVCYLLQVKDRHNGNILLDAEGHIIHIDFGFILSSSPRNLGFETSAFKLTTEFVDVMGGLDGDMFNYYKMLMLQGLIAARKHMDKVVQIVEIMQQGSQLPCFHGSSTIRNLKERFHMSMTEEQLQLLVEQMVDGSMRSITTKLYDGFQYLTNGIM
# T2 sequence (P07333 20-972): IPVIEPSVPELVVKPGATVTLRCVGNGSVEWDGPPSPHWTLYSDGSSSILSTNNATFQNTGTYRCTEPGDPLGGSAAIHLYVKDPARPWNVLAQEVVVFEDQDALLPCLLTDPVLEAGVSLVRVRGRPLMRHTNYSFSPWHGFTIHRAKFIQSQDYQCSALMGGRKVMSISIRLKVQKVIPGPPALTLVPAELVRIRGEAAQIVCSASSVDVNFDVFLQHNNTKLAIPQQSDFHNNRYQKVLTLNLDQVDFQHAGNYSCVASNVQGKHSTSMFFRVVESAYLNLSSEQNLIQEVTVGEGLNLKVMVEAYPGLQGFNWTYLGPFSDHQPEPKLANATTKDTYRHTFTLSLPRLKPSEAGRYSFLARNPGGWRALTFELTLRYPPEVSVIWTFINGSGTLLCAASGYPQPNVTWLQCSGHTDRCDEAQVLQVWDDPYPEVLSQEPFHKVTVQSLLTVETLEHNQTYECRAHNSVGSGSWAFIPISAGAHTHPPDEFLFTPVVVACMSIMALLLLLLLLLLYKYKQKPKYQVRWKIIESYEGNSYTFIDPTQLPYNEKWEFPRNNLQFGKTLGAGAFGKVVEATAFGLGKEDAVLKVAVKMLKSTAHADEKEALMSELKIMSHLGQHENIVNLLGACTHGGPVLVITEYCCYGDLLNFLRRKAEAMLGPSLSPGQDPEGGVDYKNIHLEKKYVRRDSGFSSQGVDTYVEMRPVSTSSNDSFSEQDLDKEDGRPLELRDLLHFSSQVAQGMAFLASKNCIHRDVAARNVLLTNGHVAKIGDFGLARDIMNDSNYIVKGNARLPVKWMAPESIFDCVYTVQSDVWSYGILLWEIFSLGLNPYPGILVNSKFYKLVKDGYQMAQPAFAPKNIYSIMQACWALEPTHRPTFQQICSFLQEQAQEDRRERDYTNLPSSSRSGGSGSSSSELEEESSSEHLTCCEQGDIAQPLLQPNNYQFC
# T12 sequence (Q99755 whole entry): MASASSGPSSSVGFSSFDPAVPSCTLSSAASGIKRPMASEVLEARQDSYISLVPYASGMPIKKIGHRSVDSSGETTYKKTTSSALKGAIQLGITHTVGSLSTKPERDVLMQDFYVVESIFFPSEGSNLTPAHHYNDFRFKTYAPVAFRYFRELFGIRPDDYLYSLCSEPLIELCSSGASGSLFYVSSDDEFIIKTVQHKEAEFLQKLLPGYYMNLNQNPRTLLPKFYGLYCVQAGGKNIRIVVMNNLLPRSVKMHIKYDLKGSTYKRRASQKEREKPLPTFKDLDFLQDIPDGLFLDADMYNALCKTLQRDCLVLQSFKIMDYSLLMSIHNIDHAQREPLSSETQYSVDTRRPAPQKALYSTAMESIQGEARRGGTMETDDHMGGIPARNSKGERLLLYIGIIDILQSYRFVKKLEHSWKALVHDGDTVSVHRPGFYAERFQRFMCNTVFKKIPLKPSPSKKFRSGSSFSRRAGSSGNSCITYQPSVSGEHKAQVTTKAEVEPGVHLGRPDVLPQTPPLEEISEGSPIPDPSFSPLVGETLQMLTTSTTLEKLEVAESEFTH
# T1 sequence (Q9Y243 whole entry): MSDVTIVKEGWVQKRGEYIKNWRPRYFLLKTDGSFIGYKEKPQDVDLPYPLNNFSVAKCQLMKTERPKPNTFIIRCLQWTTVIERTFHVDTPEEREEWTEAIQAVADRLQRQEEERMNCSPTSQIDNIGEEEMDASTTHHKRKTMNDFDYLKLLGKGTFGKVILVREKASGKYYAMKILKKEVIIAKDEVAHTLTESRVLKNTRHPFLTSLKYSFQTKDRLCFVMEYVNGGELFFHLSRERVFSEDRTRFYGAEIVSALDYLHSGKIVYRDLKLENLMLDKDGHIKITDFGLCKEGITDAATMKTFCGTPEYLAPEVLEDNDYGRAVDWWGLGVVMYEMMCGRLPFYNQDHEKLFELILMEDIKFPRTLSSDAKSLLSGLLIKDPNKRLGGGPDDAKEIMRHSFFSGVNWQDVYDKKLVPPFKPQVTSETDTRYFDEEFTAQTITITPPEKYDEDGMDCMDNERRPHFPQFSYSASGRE
compound,measurement,setting,value
"COc1ccc2c(c1)c1ccnc3c4ccnc(OC)c4c(=O)n2c13 [MW01-E14, 5,17-dimethoxy-1,11,16-triazapentacyclo[10.7.1.0^2,^7.0^8,^20.0^13,^18]icosa-2(7),3,5,8(20),9,11,13(18),14,16-nonaen-19-one]",inhibition at 10 µM,AKT3 (PKB gamma); [3],23%
same,inhibition at 10 µM,CSF1R (FMS); [4],18%
same,inhibition at 10 µM,DNA-PK; [5],43%
same,inhibition at 10 µM,DYRK1B; [6],23%
same,inhibition at 10 µM,EGFR (ErbB1); [7],9%
same,inhibition at 10 µM,FRAP1 (mTOR); [8],26%
same,inhibition at 10 µM,IRAK4; [9],-15%
same,inhibition at 10 µM,LRRK2; [10],-4%
same,inhibition at 10 µM,PI4KB (PI4K beta); [11],36%
same,inhibition at 10 µM,[1]; [12],59%
same,inhibition at 10 µM,[2]; [13],26%
same,inhibition at 10 µM,PIP5K1A; [14],11%
same,inhibition at 10 µM,PRKCN (PKD3); [15],-1%
"O=c1c2cnccc2c2nccc3c4cc(O)ccc4n1c32 [MW01-E18, 5-hydroxy-1,11,16-triazapentacyclo[10.7.1.0^2,^7.0^8,^20.0^13,^18]icosa-2(7),3,5,8(20),9,11,13(18),14,16-nonaen-19-one]",inhibition at 10 µM,AKT3 (PKB gamma); [3],19%
same,inhibition at 10 µM,CSF1R (FMS); [4],57%
same,inhibition at 10 µM,DNA-PK; [5],94%
same,inhibition at 10 µM,DYRK1B; [6],68%
same,inhibition at 10 µM,EGFR (ErbB1); [7],14%
same,inhibition at 10 µM,FRAP1 (mTOR); [8],43%
same,inhibition at 10 µM,IRAK4; [9],2%
same,inhibition at 10 µM,LRRK2; [10],75%
same,inhibition at 10 µM,PI4KB (PI4K beta); [11],81%
same,inhibition at 10 µM,[1]; [12],94%
same,inhibition at 10 µM,[2]; [13],62%
same,inhibition at 10 µM,PIP5K1A; [14],28%
same,inhibition at 10 µM,PRKCN (PKD3); [15],52%
"COc1ccc2cc3c(N)nn(C(=O)c4cccc(N(C)C)c4)c3nc2c1 [MW05, (3-Amino-7-methoxypyrazolo[3,4-b]quinolin-1-yl)-[3-(dimethylamino)phenyl]methanone]",inhibition at 1 µM,AKT3 (PKB gamma); [16],4%
same,inhibition at 10 µM,AKT3 (PKB gamma); [17],-6%
same,inhibition at 1 µM,CSF1R (FMS); [16],5%
same,inhibition at 10 µM,CSF1R (FMS); [17],-6%
same,inhibition at 1 µM,DNA-PK; [16],30%
same,inhibition at 10 µM,DNA-PK; [17],61%
same,IC50,"DNA-PK; in vitro kinase panel, sub-2000 nM criterion",≥ 2000 nM
same,inhibition at 1 µM,DYRK1B; [16],28%
same,inhibition at 10 µM,DYRK1B; [17],69%
same,inhibition at 1 µM,EGFR (ErbB1); [16],13%
same,inhibition at 10 µM,EGFR (ErbB1); [17],5%
same,inhibition at 1 µM,FRAP1 (mTOR); [16],31%
same,inhibition at 10 µM,FRAP1 (mTOR); [17],81%
same,inhibition at 1 µM,IRAK4; [16],0%
same,inhibition at 10 µM,IRAK4; [17],2%
same,inhibition at 1 µM,LRRK2; [16],-3%
same,inhibition at 10 µM,LRRK2; [17],5%
same,inhibition at 1 µM,PI4KB (PI4K beta); [16],-2%
same,inhibition at 10 µM,PI4KB (PI4K beta); [17],43%
same,inhibition at 1 µM,[1]; [16],16%
same,inhibition at 10 µM,[1]; [17],63%
same,inhibition at 1 µM,[2]; [16],21%
same,inhibition at 10 µM,[2]; [17],67%
same,inhibition at 1 µM,PIP5K1A; [16],-6%
same,inhibition at 10 µM,PIP5K1A; [17],5%
same,inhibition at 1 µM,PRKCN (PKD3); [16],17%
same,inhibition at 10 µM,PRKCN (PKD3); [17],15%
